This test deals with T1, recombinant human GPR52 (Homo sapiens, UniProt Q9Y2T5).
T1 construct: expressed in transfected cells
In words: GPR52 activity: TR-FRET cAMP assay (LANCE Ultra cAMP Kit). The class given is cell-based. The settings on record: Flp-In-CHO cells stably expressing recombinant human GPR52; cAMP production, normalized to positive control. Here is the method: TR-FRET cAMP assays were performed using commercially available assay kits (LANCE™ Ultra cAMP Kit). Controls and compounds were solubilized in DMSO using ½ log dilution to generate duplicate 10-point dose response curves in 384-well polypropylene compound plates. Sixty nanoliters of the diluted compounds were transferred into 384-well NBS assay plates and further diluted to 1× with the addition of 2000 cells per well. Flp-In™-CHO cells that stably express recombinant human GPR52.
Cells were harvested with cell stripper and resuspended in Stimulation Buffer (5 mM HEPES, 0.1% bovine serum albumin (BSA), 0.5 mM IBMX, pH 7.4). After thirty minutes incubation at room temperature, detection reagents were added to each well. Plates were then incubated for 30 minutes at room temperature. The LANCE™ Ultra cAMP assay uses time-resolved fluorescence resonance energy transfer (TR-FRET) to detect cAMP production; this signal was quantified using a Pherastar multi-mode plate reader.
Dose-response curves were generated from the fluorescence counts normalized to the positive control. E EC50 values were obtained using a nonlinear regression curve-fitting program.
(In general: In TR-FRET formats the signal depends on donor and acceptor labels being close together.)

Counter-ions that a name gives are not always drawn.

T1 sequence (Q9Y2T5 whole entry): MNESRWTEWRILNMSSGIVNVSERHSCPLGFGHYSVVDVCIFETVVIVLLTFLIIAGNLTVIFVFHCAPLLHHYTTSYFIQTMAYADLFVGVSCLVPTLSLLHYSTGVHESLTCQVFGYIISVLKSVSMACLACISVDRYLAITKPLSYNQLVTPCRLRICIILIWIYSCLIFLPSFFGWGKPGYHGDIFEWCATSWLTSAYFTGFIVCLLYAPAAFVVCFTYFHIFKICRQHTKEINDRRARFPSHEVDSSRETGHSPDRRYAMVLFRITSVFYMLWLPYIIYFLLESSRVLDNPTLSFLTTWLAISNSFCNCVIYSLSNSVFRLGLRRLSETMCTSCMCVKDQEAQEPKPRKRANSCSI

The term EC50 denotes the midpoint of the concentration-response curve. `N#Cc1cc(Cc2ccnc(-c3cccc(CC(N)=O)c3)c2)cc(F)c1F` [Compound 33, 2-(3-{4-[(3-cyano-4,5-difluorophenyl)methyl]pyridin-2-yl}phenyl)acetamide]: the EC50 lay within 101 to 1000 nM.
With `Cc1cc(-c2cc(Cc3cccc(S(=O)(=O)C(F)(F)F)c3)ccn2)ccc1C(N)=O` [Compound 34, 2-methyl-4-{4-[(3-trifluoromethanesulfonylphenyl)methyl]pyridin-2-yl}benzamide hydrochloride] the figure was 101 to 1000 nM; with `Cc1cc(-c2cc(Cc3cccc(C(F)(F)F)c3)ccn2)ccc1C(=O)N1CCNCC1` [Compound 35, 1-[2-methyl-4-(4-{[3-(trifluoromethyl)phenyl]methyl}pyridin-2-yl)benzoyl]piperazine hydrochloride], < 25 nM; with `Cc1cc(-c2cc(Cc3cccc(C(F)(F)F)c3)ccn2)ccc1C(=O)NCCO` [Compound 36, N-(2-hydroxyethyl)-2-methyl-4-(4-{[3-(trifluoromethyl)phenyl]methyl}pyridin-2-yl)benzamide], 25 to 100 nM.
Regarding `Cc1cc(-c2cc(Cc3cccc(C(F)(F)F)c3)ccn2)ccc1C(=O)NCCCO` [Compound 37, N-(3-hydroxypropyl)-2-methyl-4-(4-{[3-(trifluoromethyl)phenyl]methyl}pyridin-2-yl)benzamide], the EC50 lay within 25 to 100 nM.
Take `N#Cc1cc(Cc2ccnc(-c3cccc(C(N)=O)c3)c2)cc(F)c1F` [Compound 38, 3-{4-[(3-cyano-4,5-difluorophenyl)methyl]pyridin-2-yl}benzamide]: the EC50 is 101 to 1000 nM.
`NC(=O)c1ccc(-c2cc(Cc3cc(C(F)(F)F)ccc3F)ccn2)cc1` [Compound 39, 4-(4-{[2-fluoro-5-(trifluoromethyl)phenyl]methyl}pyridin-2-yl)benzamide]: the EC50 is 101 to 1000 nM.
`N#Cc1cc(F)cc(Cc2ccnc(-c3ccc(C(N)=O)cc3)c2)c1` [Compound 40, 4-{4-[(3-cyano-5-fluorophenyl)methyl]pyridin-2-yl}benzamide]: the EC50 is > 1000 nM.
With `NC(=O)C1CCN(c2cc(Cc3cccc(C(F)(F)F)c3)ccn2)CC1` [Compound 41, 1-(4-{[3-(trifluoromethyl)phenyl]methyl}pyridin-2-yl)piperidine-4-carboxamide] the figure was 25 to 100 nM; with `N#Cc1cc(Cc2ccnc(-c3ccc4c(c3)CCNC4=O)c2)ccc1F` [Compound 42, 2-fluoro-5-{[2-(1-oxo-1,2,3,4-tetrahydroisoquinolin-6-yl)pyridin-4-yl]methyl}benzonitrile], 101 to 1000 nM; with `Cc1cc(-c2cc(C(O)c3cccc(C(F)(F)F)c3)ccn2)ccc1C(N)=O` (stereo not drawn) [Compound 43, 4-(4-{hydroxy [3-(trifluoromethyl)phenyl]methyl}pyridin-2-yl)-2-methylbenzamide], > 1000 nM.
Take `Cc1cc(-c2cc(Cc3cncc(S(C)(=O)=O)c3)ccn2)ccc1C(N)=O` [Compound 44, 4-{4-[(5-methanesulfonylpyridin-3-yl)methyl]pyridin-2-yl}-2-methylbenzamide]: the EC50 is < 25 nM.

Source of the values: patent publication US20240208907A1, “GPR52 MODULATORS AND METHODS OF USE” (Neurocrine Biosciences, Inc., priority 2021, published 2024).
